Source: US11034650B2, “Compounds useful for treating a Mannheimia haemolytica or Histophilus somni infection” (Intervet Inc., priority 2016, dated 2021)
≈ marks a conversion by molar mass, not a printed value.

Tests used:
Format in all cases: cell-based
[1] = system: Mannheimia haemolytica MH 12587 (1071, BRD field isolate, macrolide-resistance: erm+, E+); assay: MIC, broth-microdilution (CLSI VET01-A4), strain MH 12587; details: Mannheimia haemolytica strain MH 12587, broth-microdilution; unit assumed
Method in brief: (§1)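 The compound was titrated in twofold steps in microdilution trays. Absence of turbidity, checked without instruments, marked the MIC at the lowest such concentration.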

[2] = system: Pasteurella multocida PM 6391 (ATCC 43137, reference strain); assay: MIC, broth-microdilution (CLSI VET01-A4), strain PM 6391; details: Pasteurella multocida strain PM 6391, broth-microdilution; unit assumed
Method in brief: as §1

[3] = system: Pasteurella multocida PM 10775 (080130003051, BRD field isolate); assay: MIC, broth-microdilution (CLSI VET01-A4), strain PM 10775; details: Pasteurella multocida strain PM 10775, broth-microdilution; unit assumed
Method in brief: as §1

[4] = system: Pasteurella multocida PM 12080 (IV102277-0093, BRD field isolate); assay: MIC, broth-microdilution (CLSI VET01-A4), strain PM 12080; details: Pasteurella multocida strain PM 12080, broth-microdilution; unit assumed
Method in brief: as §1

[5] = system: Mannheimia haemolytica MH 13093 (XB0472-6014.1, BRD field isolate); assay: MIC, broth-microdilution (CLSI VET01-A4), strain MH 13093; details: Mannheimia haemolytica strain MH 13093, broth-microdilution; unit assumed
Method in brief: as §1

[6] = system: Mannheimia haemolytica MH 13065 (XB0446-6003.9, BRD field isolate); assay: MIC, broth-microdilution (CLSI VET01-A4), strain MH 13065; details: Mannheimia haemolytica strain MH 13065, broth-microdilution; unit assumed
Method in brief: as §1

[7] = system: Mannheimia haemolytica MH 6374 (ATCC 33396, reference strain); assay: MIC, broth-microdilution (CLSI VET01-A4), strain MH 6374; details: Mannheimia haemolytica strain MH 6374, broth-microdilution; unit assumed
Method in brief: as §1

[8] = system: Mannheimia haemolytica MH 10720 (154, BRD field isolate); assay: MIC, broth-microdilution (CLSI VET01-A4), strain MH 10720; details: Mannheimia haemolytica strain MH 10720, broth-microdilution; unit assumed
Method in brief: as §1

[9] = system: Mannheimia haemolytica MH 6357 (M7/2, reference strain, cattle infection strain); assay: MIC, broth-microdilution (CLSI VET01-A4), strain MH 6357; details: Mannheimia haemolytica strain MH 6357, broth-microdilution; unit assumed
Method in brief: as §1

[10] = system: Pasteurella multocida PM 6267 (P 2225 (L386), reference strain, mouse infection strain); assay: MIC, broth-microdilution (CLSI VET01-A4), strain PM 6267; details: Pasteurella multocida strain PM 6267, broth-microdilution; unit assumed
Method in brief: as §1

Structure (SMILES) | MIC MH 12587 [1] [µg/mL] | MIC PM 6391 [2] [µg/mL] | MIC PM 10775 [3] [µg/mL] | MIC PM 12080 [4] [µg/mL] | MIC MH 13093 [5] [µg/mL] | MIC MH 13065 [6] [µg/mL] | MIC MH 6374 [7] [µg/mL] | MIC MH 10720 [8] [µg/mL] | MIC MH 6357 [9] [µg/mL] | MIC PM 6267 [10] [µg/mL]
CC(C)(C(NC(=O)c1ccc(C#Cc2ccc(CNCc3cccnc3)cc2)cc1)C(=O)NO)[N+](=O)[O-] (centres unmarked) [Compound 286] | 1.6 (≈ 3.19 µM) | 0.8 (≈ 1.6 µM) | ≤ 0.1 | ≤ 0.1 | 0.8 (≈ 1.6 µM) | 0.4 (≈ 0.798 µM) | 0.8 (≈ 1.6 µM) | ≤ 0.1 | 0.4 (≈ 0.798 µM) | 0.8 (≈ 1.6 µM)
O=C(N[C@@H](CO)C(=O)NO)c1ccc(C#Cc2ccc(CNC3CCCCC3)cc2)cc1 [Compound 149] | 25 (≈ 57.4 µM) | 1.6 (≈ 3.67 µM) | ≤ 0.1 | 1.6 (≈ 3.67 µM) | 25 (≈ 57.4 µM) | 25 (≈ 57.4 µM) | 25 (≈ 57.4 µM) | 3.1 (≈ 7.12 µM) | 12.5 (≈ 28.7 µM) | 0.8 (≈ 1.84 µM)
CC(=O)C(NC(=O)c1ccc(C#Cc2ccc(CNC3CCCC3)cc2)cc1)C(=O)NO (centres unmarked) [Compound 405] | 12.5 (≈ 28.8 µM) | 0.8 (≈ 1.85 µM) | 3.1 (≈ 7.15 µM) | 0.8 (≈ 1.85 µM) | 25 (≈ 57.7 µM) | 0.8 (≈ 1.85 µM) | 50 (≈ 115 µM) | 6.3 (≈ 14.5 µM) | 25 (≈ 57.7 µM) | 100 (≈ 231 µM)
CC(C)([C@H](NC(=O)c1ccc(C#Cc2ccc(CNCc3ccnc(Cl)c3)cc2)cc1)C(=O)NO)S(C)(=O)=O [Compound 268] | 0.8 (≈ 1.41 µM) | ≤ 0.1 | ≤ 0.1 | ≤ 0.1 | 0.4 (≈ 0.703 µM) | 0.2 (≈ 0.351 µM) | 0.4 (≈ 0.703 µM) | ≤ 0.1 | 0.4 (≈ 0.703 µM) | ≤ 0.1
CSC(C)(C)[C@H](NC(=O)c1ccc(C#Cc2ccc(CNCc3ccco3)nc2)cc1)C(=O)NO [Compound 344] | 1.6 (≈ 3.25 µM) | 0.8 (≈ 1.62 µM) | ≤ 0.1 | 0.4 (≈ 0.812 µM) | 1.6 (≈ 3.25 µM) | 0.8 (≈ 1.62 µM) | 0.8 (≈ 1.62 µM) | ≤ 0.1 | 0.4 (≈ 0.812 µM) | 0.8 (≈ 1.62 µM)
C=CCNCc1ccc(C#Cc2ccc(C(=O)N[C@H](C(=O)NO)C(C)(C)SC)cc2)s1 [Compound 301] | 0.8 (≈ 1.75 µM) | 1.6 (≈ 3.5 µM) | ≤ 0.1 | 0.4 (≈ 0.874 µM) | 0.8 (≈ 1.75 µM) | 0.4 (≈ 0.874 µM) | 0.8 (≈ 1.75 µM) | ≤ 0.1 | 0.4 (≈ 0.874 µM) | 0.4 (≈ 0.874 µM)
O=C(N[C@@H](CO)C(=O)NO)c1ccc(C#Cc2ccc(CNCC3CCCO3)cc2)cc1 (some centres unmarked) [Compound 162] | 12.5 (≈ 28.6 µM) | 3.1 (≈ 7.09 µM) | ≤ 0.1 | 1.6 (≈ 3.66 µM) | 12.5 (≈ 28.6 µM) | 12.5 (≈ 28.6 µM) | 12.5 (≈ 28.6 µM) | 3.1 (≈ 7.09 µM) | 6.3 (≈ 14.4 µM) | 0.8 (≈ 1.83 µM)
CC(C)([C@H](NC(=O)c1ccc(C#Cc2ccc(CNCc3ccccn3)s2)cc1)C(=O)NO)S(C)(=O)=O [Compound 320] | 0.8 (≈ 1.48 µM) | ≤ 0.1 | ≤ 0.1 | ≤ 0.1 | 0.4 (≈ 0.74 µM) | 0.2 (≈ 0.37 µM) | ≤ 0.1 | ≤ 0.1 | 0.2 (≈ 0.37 µM) | 0.2 (≈ 0.37 µM)
CC(C)([C@H](NC(=O)c1ccc(C#Cc2ccc(CNCc3ccncc3)nc2)cc1)C(=O)NO)S(C)(=O)=O [Compound 371] | 3.1 (≈ 5.79 µM) | 0.2 (≈ 0.373 µM) | ≤ 0.1 | 0.2 (≈ 0.373 µM) | 3.1 (≈ 5.79 µM) | 1.6 (≈ 2.99 µM) | 1.6 (≈ 2.99 µM) | 0.8 (≈ 1.49 µM) | 1.6 (≈ 2.99 µM) | 0.2 (≈ 0.373 µM)
CC[C@H](C)[C@H](NC(=O)c1ccc(C#Cc2ccc(CNCc3cccs3)cc2)cc1)C(=O)NO [Compound 182] | 1.6 (≈ 3.36 µM) | 0.8 (≈ 1.68 µM) | ≤ 0.1 | 0.2 (≈ 0.421 µM) | 0.8 (≈ 1.68 µM) | 0.8 (≈ 1.68 µM) | 1.6 (≈ 3.36 µM) | 0.2 (≈ 0.421 µM) | 0.4 (≈ 0.841 µM) | 0.2 (≈ 0.421 µM)
COCCCNCc1ccc(C#Cc2ccc(C(=O)NC(C(=O)NO)C(C)(C)[N+](=O)[O-])cc2)cc1 (centres unmarked) [Compound 285] | 6.3 (≈ 13.1 µM) | 1.6 (≈ 3.32 µM) | ≤ 0.1 | 0.8 (≈ 1.66 µM) | 3.1 (≈ 6.42 µM) | 1.6 (≈ 3.32 µM) | 3.1 (≈ 6.42 µM) | ≤ 0.1 | 1.6 (≈ 3.32 µM) | 3.1 (≈ 6.42 µM)
